Measured values: article PMC12392461, “Beyond Estrogenicity: A Comparative Assessment of Bisphenol A and Its Alternatives in In Vitro Assays Questions Safety of Replacements” (Environmental Science & Technology, 2025)
Read-outs that look alike come from different tables or passages of the source.

Legend:
[1] = test system: Mitochondrial Membrane Potential; experiment: cells; details: for SR (MMP inhibition): specificity ratio; for Specificity ratio (SRbaseline) SRMMP: against baseline cytotoxicity; for Specificity ratio (SRcytotoxicity) SRMMP: against experimental cytotoxicity; for Relative effect potency REPMMP: relative to BPA
Excerpt: All bioassay media components and the ERα-UAS-bla GripTite and PPARγ-UAS-bla cells were obtained from Thermo Fisher Scientific (Waltham, MA, USA). AREc32 reporter gene cells based on MCF7 were provided by C. Roland Wolf (Cancer Research UK); AhR CALUX cells (H4L7.5c2 derived from H4IIe) were provided by Michael Denison (UC Davis, USA); and SH-SY5Y cells were purchased from Sigma-Aldrich.
(§1) Cell culture conditions and bioassay protocols including response detection are provided in Text S2.1–2.4 and Table S3. − Cell viability was determined from cell confluency using an IncuCyte S3 Live-Cell Analysis System (Sartorius AG, Essen, Germany) before and after exposure, except for SH-SY5Y cells (live–dead staining with Nuclear Green LcS1 and propidium iodide, Abcam, UK). For metabolic activation experiments, cell viability was assessed using the ToxBLAzer DualScreen Kit (Thermo Fisher Scientific) to capture the remaining toxicity in ERα-UAS-bla GripTite after treatment with the aCYP catalyst (details in Text S2.4).
For ARE, the concentration that triggered an induction ratio of 1.5 (ECIR1.5) was used as the benchmark value, as detailed in Text S2.5. IC10 values also served as a threshold for data analysis in all assays; only concentrations below IC10 were considered when deriving EC10 or ECIR1.5. […]
S2: Cell culture and bioassays
S2.1: Cell Culturing Conditions
All suppliers and sources are given in detail in SI-Excel S3. The bioassay media for the different assays were prepared as follows: Assay medium for ER alpha-UAS-bla GripTite (ERα) and […]
2% charcoal-stripped FBS, and 100 U/mL penicillin-streptomycin. MitoOxTox and AhR assay medium was comprised of 90% DMEM with GlutaMAX, supplemented with 10% FBS, and 100 U/mL penicillin-streptomycin. […]
(§2) S2.2: Cell Seeding and Incubation. For all bioassays, cell suspensions in the respective assay medium were dispensed into each well of 384-well plates using a MultiFlo Dispenser (Biotek, (now Agilent), Winooski, VT, U.S.). After seeding, the plates were incubated at 37° C and 5% CO₂ for […]. The final cell densities and plate types were as follows: Black poly-D-lysine […]
(§3) 6500 cells/well, ERα: 5000 cells/well. White 384-well plates with a clear bottom (Product No.
(§4) NYC, U.S.) for AhR: 3250 cells/well. Black Collagen I coated plates were used (Product No.
(§5) S2.3: Chemical Dosing and Assay Analysis Procedures. The dosing procedure and high-throughput assay workflow have been described in detail before. 9 The dosing concentrations […]
Stock solutions were then either

HEK293H (PPARγ) = details: for IC10, HEK293, PPARγ: cytotoxicity, HEK293 (PPARγ assay cells); for Toxic ratio (TR) TRPPARγ: against baseline cytotoxicity
Description: as §1
(§6) For ARE, the concentration that triggered an induction ratio of 1.5 (ECIR1.5) was used as the benchmark value, as detailed in Text S2.5. IC10 values also served as a threshold for data analysis in all assays; only concentrations below IC10 were considered when deriving EC10 or ECIR1.5.
(§7) We measured the cytotoxicity of BPA and its alternatives in HEK293H (PPARγ), HEK293T (ERα), H4IIe (AhR CALUX), MCF7 (ARE/MMP), and differentiated SH-SY5Y cells (Table S6). […]
as §2, §3, §4, §5
(§8) Stock solutions were then either added directly to the respective cell culture medium or evaporated under nitrogen, followed by replenishment with fresh medium. The final solvent content in each well was kept below 1% for methanol, 0% for acetonitrile.
(§9) Dosing plates were prepared as 11 -step serial dilutions using a Hamilton Microlab Star robotic system (Hamilton, Bonaduz, Switzerland), and chemicals were dosed in duplicates by transferring 10 μL twice from the dosing plates to the cell plates . After quantifying cell confluency as described in S2. 4., the exposed cells were incubated at 37° C and 5% CO₂ for an additional 24 h. All chemicals were tested in all assays with at least three independent […]
(§10) S2.4: Cell Viability Measurement s and bioanalytical protocols . The confluency as a measure of cell viability was determined with an IncuCyte S3 Live -Cell Analysis System (Sartorius AG, Essen, Germany). With this method the confluency of cells in a microscopy image are normalized to control wells without cells and compared before and after 24 hours of exposure.
(§11) This method has been described previously 13. […]

H4IIe (AhR CALUX) = details: for IC10, linear: linear model fit; for IC10, H4IIe, AhR: H4IIe (AhR assay cells); for Toxic ratio (TR) TRAhR: against baseline cytotoxicity
Description: as §1, §6, §7, §2, §3, §4, §5, §8, §9, §10, §11

MCF7 (ARE/MMP) = details: for IC10, MCF7, ARE: MCF7, ARE readout; for IC10, MCF7, MMP: MCF7, MMP readout; for Toxic ratio (TR) TRARE / Toxic ratio (TR) TRMMP: against baseline cytotoxicity; for Toxic ratio (TR) TRARE: ARE readout; for Toxic ratio (TR) TRMMP: MMP readout
Description: as §1, §6, §7, §2, §3, §4, §5, §8, §9, §10, §11

HEK293T (ERα) = details: for IC10, HEK293, ERα: HEK293 (ERα assay cells); for Toxic ratio (TR) TRERα: against baseline cytotoxicity
Description: as §1, §6, §7, §2, §3, §4, §5, §8, §9, §10, §11

[2] = Arec32, read-out: EC10, MMP (M)
[3] = Arec32, read-out: EC10, linear transformed
[4] = PPARγ bioassay cytotoxicity, dosing range all
[5] = PPARγ bioassay cytotoxicity, dosing range all, linear model
[6] = PPARγ bioassay cytotoxicity, dosing range all, log-logistic model
[7] = Bioassay AhR, cytotoxicity, dosing range all
[8] = Bioassay AhR, cytotoxicity, dosing range all, log-logistic model fit
[9] = Bioassay ARE, cytotoxicity, dosing range all
[10] = Bioassay ARE, cytotoxicity, dosing range all, linear model fit
[11] = Bioassay ARE, cytotoxicity, dosing range all, log-logistic model fit
[12] = MMP bioassay cytotoxicity, dosing range all
[13] = MMP bioassay cytotoxicity, dosing range all, linear model
[14] = MMP bioassay cytotoxicity, dosing range all, log-logistic model
[15] = Bioassay ERα, cytotoxicity, dosing range all
[16] = Bioassay ERα, cytotoxicity, dosing range all, linear model fit
[17] = Bioassay ERα, cytotoxicity, dosing range all, log-logistic model fit

SMILES	EC10 ([1]; Arec32, read-out: EC10, MMP)	EC10 [1, 2]	EC10 [1, 3]	EC10 ([1]; Arec32, read-out: logEC10)	SR (MMP inhibition) [1]	IC10, linear transformed (HEK293H (PPARγ); [4])	IC10, linear (HEK293H (PPARγ); [5])	logIC10 (HEK293H (PPARγ); [6])	IC10, HEK293, PPARγ (HEK293H (PPARγ))	IC10, linear transformed (H4IIe (AhR CALUX); [7])	IC10, linear (H4IIe (AhR CALUX); [7])	logIC10 (H4IIe (AhR CALUX); [8])	IC10, H4IIe, AhR (H4IIe (AhR CALUX); cytotoxicity)	IC10, linear transformed (MCF7 (ARE/MMP); [9])	IC10, linear (MCF7 (ARE/MMP); [10])	logIC10 (MCF7 (ARE/MMP); [11])	IC10, linear transformed (MCF7 (ARE/MMP); [12])	IC10, linear (MCF7 (ARE/MMP); [13])	logIC10 (MCF7 (ARE/MMP); [14])	IC10, MCF7, ARE (MCF7 (ARE/MMP); cytotoxicity)	also measured
Oc1ccc(Sc2ccc(O)cc2)cc1 [BPT, 4,4'-Thiodiphenol]	1.83e-05 M	1.83e-05 M	1.82e-05 M	1.82e-05 M	> 10	4.47E-06	2.13E-05	-4.76	17.4 µM	8.07E-05	5.00E-05	-4.09	50 µM	1.75E-04	3.07E-04	-3.76	2.05E-04	2.97E-04	-3.69	175 µM	EC10, linear ([1]; MMP bioassay, dosing range all, linear model): no effect; IC10, MCF7, MMP (MCF7 (ARE/MMP); cytotoxicity): 205 µM; IC10, linear transformed (HEK293T (ERα); [15]): 4.06E-05; IC10, linear (HEK293T (ERα); [16]): 2.43E-05; logIC10 (HEK293T (ERα); [17]): -4.53; IC10, HEK293, ERα (HEK293T (ERα); cytotoxicity): 24.3 µM
O=C(OCc1ccccc1)c1ccc(O)cc1 [BzPB, Benzyl 4-hydroxybenzoate]	2.44e-05 M	2.44e-05 M	2.45e-05 M	2.45e-05 M	> 10	3.90E-06	3.41E-05	-4.33	46.8 µM	2.87E-04	1.74E-04	-3.54	174 µM	8.95E-05	1.23E-04	-4.05	2.97E-04	1.94E-04	-3.53	89.5 µM	EC10 ([1]; Arec32, read-out: EC10, linear): 1.68e-05 M; Specificity ratio (SRbaseline) SRMMP [1]: 1.38; Specificity ratio (SRcytotoxicity) SRMMP [1]: 12.18; Relative effect potency REPMMP [1]: 1.15; Toxic ratio (TR) TRPPARγ (HEK293H (PPARγ)): 0.35; Toxic ratio (TR) TRAhR (H4IIe (AhR CALUX)): 0.19; Toxic ratio (TR) TRARE (MCF7 (ARE/MMP)): 0.38; Toxic ratio (TR) TRMMP (MCF7 (ARE/MMP)): 0.11; IC10, MCF7, MMP (MCF7 (ARE/MMP); cytotoxicity): 297 µM; IC10, linear transformed (HEK293T (ERα); [15]): 1.15E-05; IC10, linear (HEK293T (ERα); [16]): 4.80E-05; logIC10 (HEK293T (ERα); [17]): -4.38; Toxic ratio (TR) TRERα (HEK293T (ERα)): 0.39; IC10, HEK293, ERα (HEK293T (ERα); cytotoxicity): 42.1 µM
CC(C)Oc1ccc(S(=O)(=O)c2ccc(O)cc2)cc1 [D8, 4-((4-Isopropoxyphenyl)sulfonyl)phenol]	5.2e-05 M	5.2e-05 M	5.14e-05 M	5.25e-05 M	41	–	–	–	–	–	–	–	–	–	–	–	–	–	–	–	EC10 ([1]; Arec32, read-out: EC10, linear): 5.8e-05 M; Specificity ratio (SRbaseline) SRMMP [1]: 2.47; Specificity ratio (SRcytotoxicity) SRMMP [1]: 41.11; Relative effect potency REPMMP [1]: 0.54; IC10, linear (HEK293H (PPARγ)): no cytotoxicity; Toxic ratio (TR) TRPPARγ (HEK293H (PPARγ)): 0.93; logIC10 (HEK293H (PPARγ); human, 24 h): -4.15; Toxic ratio (TR) TRAhR (H4IIe (AhR CALUX)): 2.94; logIC10 (H4IIe (AhR CALUX); rat, 24 h): -4.56; Toxic ratio (TR) TRARE (MCF7 (ARE/MMP)): 0.06; Toxic ratio (TR) TRMMP (MCF7 (ARE/MMP)): 0.06; logIC10 (MCF7 (ARE/MMP); human, 24 h): -2.67; IC10, linear (HEK293T (ERα)): no cytotoxicity; Toxic ratio (TR) TRERα (HEK293T (ERα)): 0.36; logIC10 (HEK293T (ERα); human, 24 h): -3.73
